# Data taken from BindingDB's records for doi:10.1016/j.jmb.2008.04.054 (Gilead Sciences, 2008).
# Target: T1, Gag-Pol polyprotein [1148-1435] (Human immunodeficiency virus 1, UniProt P04585)
# T1 construct: 1148-1435
# Test: Integrase 3-End Joining Assay
# Details: pH 7.3; 22 °C
# Experimental: In the 3-end joining assay, the biotinylated donor DNA was bound to streptavidin-coated plates, and integrase was added to each well to allow processing of the donor DNA. Serially diluted compounds and DIG-tagged target DNA were then added to each well, and 3-end joining reaction was allowed to proceed for 30 min. Signal was detected using horseradishperoxidase-conjugated anti-Digoxin antibody through chemiluminescence measurement.
row,SMILES,IC50
1,COc1c2c(c(O)c3ncccc13)C(=O)N(Cc1ccc(F)cc1)C2,0.06 µM
2,"O=C(NCc1ccc(F)cc1)c1nc(N2CCCCS2(=O)=O)c2cccnc2c1O [5-(1,1-dioxo-1,2-thiazinan-2-yl)-N-[(4-fluorophenyl)methyl]-8-hydroxy-1,6-naphthyridine-7-carboxamide]",0.044 µM
3,"CC[C@H](CO)n1cc(C(=O)O)c(=O)c2cc(Cc3cccc(Cl)c3F)ccc21 [6-[(3-chloro-2-fluorophenyl)methyl]-1-[(2R)-1-hydroxybutan-2-yl]-4-oxo-1,4-dihydroquinoline-3-carboxylic acid]",0.042 µM
4,"COc1c2c(c(OC)c3ncccc13)C(=O)N(Cc1ccc(F)cc1)C2 [7-[(4-fluorophenyl)methyl]-5,9-dimethoxy-6H,7H,8H-pyrrolo[3,4-g]quinolin-8-one]",> 1000 µM
5,"COc1c2c(cc3ncccc13)C(=O)N(Cc1ccc(F)cc1)C2 [7-[(4-fluorophenyl)methyl]-5-methoxy-6H,7H,8H-pyrrolo[3,4-g]quinolin-8-one]",24 µM
6,O=C(O)C(=O)CC(=O)c1cccc(Cc2ccccc2)c1 [(2Z)-4-(3-benzylphenyl)-2-hydroxy-4-oxobut-2-enoic acid],0.026 µM
